Experimental data: ChEMBL document CHEMBL4610037, “Discovery of 5-(pyridin-3-yl)-1H-indole-4,7-diones as indoleamine 2,3-dioxygenase 1 (IDO1) inhibitors” (Bioorg Med Chem Lett, 2020)
pEC50, pIC50: −log10 of the molar value. Calls of active or inactive are those of the source. The rule behind the calls is not given here.

Tests used:
[1] = target: T1, Indoleamine 2,3-dioxygenase 1 (Homo sapiens, UniProt P14902); experiment: Inhibition of recombinant human IDO1 expressed in Escherichia coli
Target sequence in this assay (P14902 whole entry): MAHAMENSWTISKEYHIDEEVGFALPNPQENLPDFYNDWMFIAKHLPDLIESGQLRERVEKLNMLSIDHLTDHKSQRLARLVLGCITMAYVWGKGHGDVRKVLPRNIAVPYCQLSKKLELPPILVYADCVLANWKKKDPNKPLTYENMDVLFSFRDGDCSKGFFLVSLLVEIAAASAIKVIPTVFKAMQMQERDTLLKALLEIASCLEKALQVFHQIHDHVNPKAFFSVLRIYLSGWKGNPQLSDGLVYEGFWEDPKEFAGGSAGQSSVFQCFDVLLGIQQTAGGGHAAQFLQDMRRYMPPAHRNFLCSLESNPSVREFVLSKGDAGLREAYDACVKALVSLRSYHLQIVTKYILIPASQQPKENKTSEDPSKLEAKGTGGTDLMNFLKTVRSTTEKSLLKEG

[2] = target: T1, Indoleamine 2,3-dioxygenase 1; experiment: Inhibition of IFNgamma-stimulated IDO1 in human HeLa cells; type: cell-based
Target sequence in this assay (P14902 whole entry): as above

[3] = target: T1, Indoleamine 2,3-dioxygenase 1; experiment: Inhibition of recombinant human IDO1 expressed in Escherichia coli at 10 uM relative to control
Target sequence in this assay (P14902 whole entry, looked up): as the sequence (P14902 whole entry) above

[4] = target: T1, Indoleamine 2,3-dioxygenase 1; experiment: Competitive inhibition of recombinant human IDO1 expressed in Escherichia coli at 1 to 4 uM using L-tryptophan as substrate
Target sequence in this assay (P14902 whole entry, looked up): as the sequence (P14902 whole entry) above

[5] = target: T1, Indoleamine 2,3-dioxygenase 1; experiment: Reversible inhibition of recombinant human IDO1 expressed in Escherichia coli at 100 uM using L-tryptophan as substrate
Target sequence in this assay (P14902 whole entry, looked up): as the sequence (P14902 whole entry) above

Row | SMILES | pIC50 [1] | pEC50 [2] | inhibition [3] | inhibition [4] | inhibition [5]
1 | O=C1C=C(c2cccnc2)C(=O)c2c(CCNS(=O)(=O)c3ccccc3)c[nH]c21 | 5.45 | 5.31 | 59.7% | – | –
2 | CC(C)(C)OC(=O)NCCc1c[nH]c2c1C(=O)C(c1ccncc1)=CC2=O | – | – | 12.4% | – | –
3 | CC(C)(C)OC(=O)NCCc1c[nH]c2c1C(=O)C(c1ccc(F)cc1)=CC2=O | – | – | 43.3% | – | –
4 | O=C1C=C(c2cccnc2)C(=O)c2c(CCNC3CCCCC3)c[nH]c21 | 5.82 | 5.60 | 65% | – | –
5 | CC(C)NCCc1c[nH]c2c1C(=O)C(c1cccnc1)=CC2=O | 6.29 | 5.59 | 63.8% | – | –
6 | COc1ccc(C2=CC(=O)c3[nH]cc(CCNC(=O)OC(C)(C)C)c3C2=O)cc1 | – | – | 34.5% | – | –
7 | O=C1C=C(c2cccnc2)C(=O)c2c(CCNCCc3ccccc3)c[nH]c21 | 5.40 | < 5.00 | 68.3% | – | –
8 | CCN(CC)CCc1c[nH]c2c1C(=O)C(c1cccnc1)=CC2=O | 5.65 | < 5.00 | 64.2% | – | –
9 | CC(C)(C)C(=O)NCCc1c[nH]c2c1C(=O)C(c1cccnc1)=CC2=O | 6.11 | 5.34 | 72.3% | – | –
10 | CC(=O)NCCc1c[nH]c2c1C(=O)C(c1cccnc1)=CC2=O | 5.87 | < 5.00 | 57.5% | – | –
11 | CC(C)(C)OC(=O)NCCc1c[nH]c2c1C(=O)C(c1cccnc1)=CC2=O | 5.72 | 5.27 | 66.5% | Active | Active
12 | CC(C)(C)OC(=O)NCCc1c[nH]c2c1C(=O)C(c1ccccc1F)=CC2=O | 5.68 | – | 67.3% | – | –
13 | CC(C)(C)OC(=O)NCCc1c[nH]c2c1C(=O)C(c1ccccc1)=CC2=O | 5.53 | – | 56.4% | – | –
14 | Cc1ccc(C2=CC(=O)c3[nH]cc(CCNC(=O)OC(C)(C)C)c3C2=O)cc1 | – | – | 25.5% | – | –
15 | CC(C)(C)CNCCc1c[nH]c2c1C(=O)C(c1cccnc1)=CC2=O | 6.25 | 5.34 | 79.5% | – | –
16 | O=C(NCCc1c[nH]c2c1C(=O)C(c1cccnc1)=CC2=O)c1ccccc1 | 5.68 | 5.29 | 65.7% | – | –
17 | CN(C)CCc1c[nH]c2c1C(=O)C(c1cccnc1)=CC2=O | 6.30 | 5.37 | 71.3% | – | –
18 | COc1ccccc1C1=CC(=O)c2[nH]cc(CCNC(=O)OC(C)(C)C)c2C1=O | 5.62 | – | 63.2% | – | –
19 | NCCc1c[nH]c2c1C(=O)C(c1cccnc1)=CC2=O | 6.29 | 5.18 | 74.9% | – | –
20 | CCCCNCCc1c[nH]c2c1C(=O)C(c1cccnc1)=CC2=O | 6.06 | 5.57 | 79.2% | – | –
21 | CCNCCc1c[nH]c2c1C(=O)C(c1cccnc1)=CC2=O | 6.80 | 5.45 | 81.7% | – | –
